≈ marks a conversion by molar mass, not a printed value. Residues, ends and D or L forms follow the SMILES beside them. *: point of attachment. Cbz = O=C(OCc1ccccc1)*; CHN2 = [N-]=[N+]=C*
Key:
Cathepsin S = Cathepsin S (Homo sapiens, UniProt P25774); assay: The apparent binding affinity against cathepsin S.; settings: read-out: Ki app
Cathepsin K = Cathepsin K (Homo sapiens, UniProt P43235); assay: The apparent binding affinity against cathepsin K.; settings: read-out: Ki app
Cathepsin B = Cathepsin B (Homo sapiens, UniProt P07858)
Procathepsin L [1] = molecular target: T1, Procathepsin L (Homo sapiens, UniProt P07711)
T1 sequence (P07711 whole entry): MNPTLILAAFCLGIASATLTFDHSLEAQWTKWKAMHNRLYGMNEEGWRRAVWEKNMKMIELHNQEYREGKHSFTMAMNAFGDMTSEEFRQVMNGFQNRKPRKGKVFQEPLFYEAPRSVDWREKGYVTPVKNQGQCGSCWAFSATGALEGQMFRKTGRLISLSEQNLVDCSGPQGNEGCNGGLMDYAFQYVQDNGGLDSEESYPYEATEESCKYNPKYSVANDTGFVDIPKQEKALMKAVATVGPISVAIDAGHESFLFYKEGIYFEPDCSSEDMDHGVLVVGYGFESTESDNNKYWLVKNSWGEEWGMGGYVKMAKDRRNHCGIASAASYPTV

[2] = molecular target: T2, Angiotensin-converting enzyme (Homo sapiens, UniProt P12821)
T2 sequence (P12821 whole entry): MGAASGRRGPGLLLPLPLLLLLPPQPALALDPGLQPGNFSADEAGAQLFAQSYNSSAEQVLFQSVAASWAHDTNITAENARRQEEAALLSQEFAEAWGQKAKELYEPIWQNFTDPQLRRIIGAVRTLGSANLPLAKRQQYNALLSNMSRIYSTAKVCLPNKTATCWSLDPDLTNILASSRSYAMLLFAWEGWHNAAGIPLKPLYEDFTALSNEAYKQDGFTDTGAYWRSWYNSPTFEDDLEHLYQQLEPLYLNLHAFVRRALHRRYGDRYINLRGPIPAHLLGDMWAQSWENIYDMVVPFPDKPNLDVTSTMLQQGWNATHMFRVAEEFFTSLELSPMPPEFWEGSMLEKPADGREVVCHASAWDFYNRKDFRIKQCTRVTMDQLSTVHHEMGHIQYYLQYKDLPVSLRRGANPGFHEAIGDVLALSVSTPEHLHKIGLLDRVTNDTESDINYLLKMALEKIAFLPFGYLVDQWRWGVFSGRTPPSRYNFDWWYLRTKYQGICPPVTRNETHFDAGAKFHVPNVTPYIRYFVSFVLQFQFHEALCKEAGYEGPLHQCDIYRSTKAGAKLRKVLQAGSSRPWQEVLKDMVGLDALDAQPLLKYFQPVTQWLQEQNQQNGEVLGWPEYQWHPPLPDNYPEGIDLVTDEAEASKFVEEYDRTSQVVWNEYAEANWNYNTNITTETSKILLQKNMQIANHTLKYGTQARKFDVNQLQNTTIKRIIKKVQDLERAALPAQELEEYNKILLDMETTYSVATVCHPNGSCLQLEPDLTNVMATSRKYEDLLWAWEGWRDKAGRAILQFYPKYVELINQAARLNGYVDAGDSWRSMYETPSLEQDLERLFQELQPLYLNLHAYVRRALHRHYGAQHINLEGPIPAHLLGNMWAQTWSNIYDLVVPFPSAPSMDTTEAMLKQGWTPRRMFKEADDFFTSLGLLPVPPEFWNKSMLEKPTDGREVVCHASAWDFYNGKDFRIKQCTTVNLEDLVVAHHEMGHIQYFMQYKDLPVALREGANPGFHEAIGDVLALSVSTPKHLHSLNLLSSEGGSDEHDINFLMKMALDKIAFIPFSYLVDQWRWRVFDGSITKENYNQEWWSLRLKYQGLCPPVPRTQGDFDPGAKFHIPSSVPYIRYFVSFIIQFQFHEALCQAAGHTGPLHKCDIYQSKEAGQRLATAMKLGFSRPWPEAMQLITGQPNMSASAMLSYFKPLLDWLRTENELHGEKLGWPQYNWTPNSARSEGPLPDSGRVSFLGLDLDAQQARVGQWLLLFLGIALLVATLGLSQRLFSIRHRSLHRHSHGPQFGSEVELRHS

[3] = Oral bioavailability in dog; format: ADME, organism-based, Canis lupus familiaris; settings: in vivo
Serine protease 1 [4] = molecular target: T3, Serine protease 1 (Homo sapiens, UniProt P07477)
T3 sequence (P07477 whole entry): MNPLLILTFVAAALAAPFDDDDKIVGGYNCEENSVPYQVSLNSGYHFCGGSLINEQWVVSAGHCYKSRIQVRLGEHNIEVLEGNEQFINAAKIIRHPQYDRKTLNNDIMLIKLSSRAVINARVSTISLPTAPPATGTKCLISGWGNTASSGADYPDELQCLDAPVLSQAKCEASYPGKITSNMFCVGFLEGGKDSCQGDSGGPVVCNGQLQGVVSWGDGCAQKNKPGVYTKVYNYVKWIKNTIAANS

[5] = molecular target: T2, Angiotensin-converting enzyme; assay: oral activity against angiotensin -converting enzyme ( ACE) and neutral endopeptidase in mouse.
Neprilysin = molecular target: T4, Neprilysin (Rattus norvegicus, UniProt P07861)
T4 sequence (P07861 whole entry): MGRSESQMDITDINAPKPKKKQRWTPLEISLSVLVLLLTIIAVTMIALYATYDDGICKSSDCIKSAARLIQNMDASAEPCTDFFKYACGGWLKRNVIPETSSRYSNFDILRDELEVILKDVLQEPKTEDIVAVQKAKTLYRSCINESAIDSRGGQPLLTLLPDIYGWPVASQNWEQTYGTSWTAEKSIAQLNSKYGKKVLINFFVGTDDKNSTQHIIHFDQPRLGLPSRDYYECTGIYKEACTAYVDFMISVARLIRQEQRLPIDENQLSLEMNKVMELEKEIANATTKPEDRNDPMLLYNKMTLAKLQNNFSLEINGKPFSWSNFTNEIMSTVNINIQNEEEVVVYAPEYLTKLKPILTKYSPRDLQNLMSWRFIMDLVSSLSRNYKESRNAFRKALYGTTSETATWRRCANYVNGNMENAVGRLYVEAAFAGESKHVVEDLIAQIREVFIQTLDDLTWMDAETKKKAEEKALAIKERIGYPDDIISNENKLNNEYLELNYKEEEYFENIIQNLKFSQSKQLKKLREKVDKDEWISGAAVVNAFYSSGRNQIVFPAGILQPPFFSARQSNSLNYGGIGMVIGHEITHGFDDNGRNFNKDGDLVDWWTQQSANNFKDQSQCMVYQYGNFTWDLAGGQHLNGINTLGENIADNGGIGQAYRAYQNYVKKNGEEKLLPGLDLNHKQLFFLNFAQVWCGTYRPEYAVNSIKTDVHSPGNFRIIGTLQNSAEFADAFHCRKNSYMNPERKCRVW

[6] = molecular target: 72 kDa type IV collagenase (Homo sapiens, UniProt P08253)
Sequence of 72 kDa type IV collagenase (P08253 whole entry): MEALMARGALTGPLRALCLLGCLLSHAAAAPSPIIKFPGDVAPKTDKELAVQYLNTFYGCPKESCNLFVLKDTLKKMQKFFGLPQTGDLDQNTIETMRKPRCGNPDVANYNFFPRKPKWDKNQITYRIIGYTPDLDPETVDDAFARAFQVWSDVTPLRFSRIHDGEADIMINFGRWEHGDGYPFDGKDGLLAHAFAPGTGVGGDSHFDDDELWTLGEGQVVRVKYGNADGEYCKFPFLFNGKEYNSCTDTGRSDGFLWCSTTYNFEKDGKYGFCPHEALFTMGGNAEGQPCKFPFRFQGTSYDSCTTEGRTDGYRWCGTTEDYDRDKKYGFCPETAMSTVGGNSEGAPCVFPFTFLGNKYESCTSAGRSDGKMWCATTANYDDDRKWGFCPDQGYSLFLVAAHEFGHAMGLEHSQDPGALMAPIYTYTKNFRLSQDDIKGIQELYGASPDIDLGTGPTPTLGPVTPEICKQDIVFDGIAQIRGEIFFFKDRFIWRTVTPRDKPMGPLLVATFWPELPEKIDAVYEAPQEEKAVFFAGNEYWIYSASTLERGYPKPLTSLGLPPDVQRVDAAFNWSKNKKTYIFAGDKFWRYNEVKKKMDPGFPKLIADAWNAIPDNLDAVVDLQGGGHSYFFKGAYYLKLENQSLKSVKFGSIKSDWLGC

Procathepsin L [7] = molecular target: T1, Procathepsin L; assay: Inhibitory activity against cathepsin L, lysosomal cysteine protease
Stromelysin-1 = Stromelysin-1 (Homo sapiens, UniProt P08254)
Sequence of Stromelysin-1 (P08254 whole entry): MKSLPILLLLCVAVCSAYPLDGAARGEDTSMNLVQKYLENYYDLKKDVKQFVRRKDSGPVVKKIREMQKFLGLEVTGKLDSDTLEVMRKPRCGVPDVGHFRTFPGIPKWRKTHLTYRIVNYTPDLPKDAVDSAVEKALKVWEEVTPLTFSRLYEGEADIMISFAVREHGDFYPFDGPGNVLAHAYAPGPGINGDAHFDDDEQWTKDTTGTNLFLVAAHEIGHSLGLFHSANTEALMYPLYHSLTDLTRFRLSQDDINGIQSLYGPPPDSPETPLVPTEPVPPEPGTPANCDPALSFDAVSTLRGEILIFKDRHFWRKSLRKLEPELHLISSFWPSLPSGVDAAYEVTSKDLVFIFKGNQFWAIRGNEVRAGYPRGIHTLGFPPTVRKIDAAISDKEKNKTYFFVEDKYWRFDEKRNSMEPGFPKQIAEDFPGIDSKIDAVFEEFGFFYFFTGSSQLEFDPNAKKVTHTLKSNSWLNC

Interstitial collagenase = molecular target: T5, Interstitial collagenase (Homo sapiens, UniProt P03956)
T5 sequence (P03956 whole entry): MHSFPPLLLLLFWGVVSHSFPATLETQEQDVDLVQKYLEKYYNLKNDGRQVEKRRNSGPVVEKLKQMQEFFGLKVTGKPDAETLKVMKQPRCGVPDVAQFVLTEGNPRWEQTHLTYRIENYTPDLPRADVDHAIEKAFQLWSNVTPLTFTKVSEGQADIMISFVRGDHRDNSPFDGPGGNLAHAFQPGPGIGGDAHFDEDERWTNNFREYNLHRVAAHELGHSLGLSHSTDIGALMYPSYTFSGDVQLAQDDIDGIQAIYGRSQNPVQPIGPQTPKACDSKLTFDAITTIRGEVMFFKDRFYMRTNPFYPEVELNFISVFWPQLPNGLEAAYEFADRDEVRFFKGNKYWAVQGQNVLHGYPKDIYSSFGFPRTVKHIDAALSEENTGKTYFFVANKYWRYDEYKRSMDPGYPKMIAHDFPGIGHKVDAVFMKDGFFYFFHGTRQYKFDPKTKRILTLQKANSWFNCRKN

[8] = Inhibitory concentration against Chymotrypsinogen
[9] = Inhibitory concentration against Elastase
Plasminogen = Plasminogen (Rattus norvegicus, UniProt Q01177); assay: Inhibitory concentration against Plasmin
Sequence of Plasminogen (Q01177 97-581 limits assumed): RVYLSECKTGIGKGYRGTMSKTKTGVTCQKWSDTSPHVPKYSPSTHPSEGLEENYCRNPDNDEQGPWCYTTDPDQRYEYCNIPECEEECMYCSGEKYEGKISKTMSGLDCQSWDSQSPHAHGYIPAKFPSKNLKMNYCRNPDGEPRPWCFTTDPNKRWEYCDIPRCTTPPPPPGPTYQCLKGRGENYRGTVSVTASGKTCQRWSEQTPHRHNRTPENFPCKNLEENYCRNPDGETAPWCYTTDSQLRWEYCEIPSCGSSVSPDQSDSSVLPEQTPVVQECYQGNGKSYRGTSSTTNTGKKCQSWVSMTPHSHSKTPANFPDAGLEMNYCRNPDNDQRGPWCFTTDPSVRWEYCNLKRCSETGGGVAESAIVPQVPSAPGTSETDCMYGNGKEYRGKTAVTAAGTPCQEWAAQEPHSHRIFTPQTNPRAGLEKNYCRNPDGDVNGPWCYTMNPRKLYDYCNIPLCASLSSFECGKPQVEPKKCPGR
Sequence of Plasminogen (Q01177 582-812 limits assumed): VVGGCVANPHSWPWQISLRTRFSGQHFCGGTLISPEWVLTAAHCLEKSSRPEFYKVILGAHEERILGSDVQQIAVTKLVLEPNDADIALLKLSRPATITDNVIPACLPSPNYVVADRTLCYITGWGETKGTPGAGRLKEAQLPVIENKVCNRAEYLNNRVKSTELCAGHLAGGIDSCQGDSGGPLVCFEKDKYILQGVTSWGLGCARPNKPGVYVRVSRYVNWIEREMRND

Serine protease 1 [10] = molecular target: T3, Serine protease 1; assay: Inhibitory concentration against Trypsin
Matrilysin = Matrilysin (Homo sapiens, UniProt P09237); assay: Inhibition of matrix metalloprotease-7 (MMP-7).
Coagulation factor X = Coagulation factor X (Homo sapiens, UniProt P00742)
Sequence of Coagulation factor X (P00742 41-179 limits assumed): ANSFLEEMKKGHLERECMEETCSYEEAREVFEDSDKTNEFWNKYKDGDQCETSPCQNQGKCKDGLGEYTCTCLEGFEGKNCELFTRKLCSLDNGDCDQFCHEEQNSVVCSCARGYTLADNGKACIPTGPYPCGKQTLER
Sequence of Coagulation factor X (P00742 235-488 limits assumed): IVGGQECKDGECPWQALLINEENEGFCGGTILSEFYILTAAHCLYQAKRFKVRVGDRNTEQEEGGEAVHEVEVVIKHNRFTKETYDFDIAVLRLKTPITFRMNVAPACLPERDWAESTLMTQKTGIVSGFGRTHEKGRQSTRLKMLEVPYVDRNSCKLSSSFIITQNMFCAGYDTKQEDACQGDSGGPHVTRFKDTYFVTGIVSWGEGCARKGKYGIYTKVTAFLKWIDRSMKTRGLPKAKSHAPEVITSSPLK

[11] = The irreversible inhibitor activity by second order rate equation.; format: ADME
Caspase-1 = molecular target: T6, Caspase-1 (Homo sapiens, UniProt P29466)
T6 sequence (P29466 whole entry): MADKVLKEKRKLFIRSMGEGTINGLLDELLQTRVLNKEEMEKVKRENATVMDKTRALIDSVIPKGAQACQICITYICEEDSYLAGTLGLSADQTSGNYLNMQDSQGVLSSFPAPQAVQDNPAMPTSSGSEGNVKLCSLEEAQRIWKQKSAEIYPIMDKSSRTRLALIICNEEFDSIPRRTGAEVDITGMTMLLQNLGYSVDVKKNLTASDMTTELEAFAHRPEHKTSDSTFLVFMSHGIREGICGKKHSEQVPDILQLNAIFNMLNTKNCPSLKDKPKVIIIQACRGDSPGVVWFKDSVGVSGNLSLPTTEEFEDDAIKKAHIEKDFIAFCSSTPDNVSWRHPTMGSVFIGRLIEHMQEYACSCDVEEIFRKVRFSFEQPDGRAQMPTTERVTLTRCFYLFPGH

[12] = molecular target: T7, Calpain-1 catalytic subunit (Homo sapiens, UniProt P07384); assay: The binding affinity against calpain.
T7 sequence (P07384 whole entry): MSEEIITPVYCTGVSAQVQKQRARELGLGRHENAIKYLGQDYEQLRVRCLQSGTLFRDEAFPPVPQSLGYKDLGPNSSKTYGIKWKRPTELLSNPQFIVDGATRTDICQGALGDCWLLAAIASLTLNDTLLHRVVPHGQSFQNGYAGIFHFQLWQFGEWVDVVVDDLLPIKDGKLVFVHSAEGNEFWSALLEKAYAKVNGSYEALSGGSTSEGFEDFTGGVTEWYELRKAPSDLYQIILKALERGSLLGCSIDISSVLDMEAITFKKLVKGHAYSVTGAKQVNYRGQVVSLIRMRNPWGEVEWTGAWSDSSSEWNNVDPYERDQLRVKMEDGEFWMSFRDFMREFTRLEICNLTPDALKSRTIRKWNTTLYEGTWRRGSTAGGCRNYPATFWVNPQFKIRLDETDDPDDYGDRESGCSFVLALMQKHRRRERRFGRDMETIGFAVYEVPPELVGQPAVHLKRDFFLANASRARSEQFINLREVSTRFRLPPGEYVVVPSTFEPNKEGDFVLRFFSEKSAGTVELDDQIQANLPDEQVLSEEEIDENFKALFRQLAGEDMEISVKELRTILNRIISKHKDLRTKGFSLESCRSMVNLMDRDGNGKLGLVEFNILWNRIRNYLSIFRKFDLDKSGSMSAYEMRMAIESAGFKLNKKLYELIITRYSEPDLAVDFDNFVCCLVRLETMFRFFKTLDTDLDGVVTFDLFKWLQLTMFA

[13] = Oral bioavailability in human; format: ADME, organism-based; settings: in vivo
Tryptase = Tryptase (Homo sapiens, UniProt Q9BZJ3+Q15661+Q9NRR2); assay: Binding affinity against Tryptase.; format: protein assay

Sequence of Cathepsin K (P43235 whole entry): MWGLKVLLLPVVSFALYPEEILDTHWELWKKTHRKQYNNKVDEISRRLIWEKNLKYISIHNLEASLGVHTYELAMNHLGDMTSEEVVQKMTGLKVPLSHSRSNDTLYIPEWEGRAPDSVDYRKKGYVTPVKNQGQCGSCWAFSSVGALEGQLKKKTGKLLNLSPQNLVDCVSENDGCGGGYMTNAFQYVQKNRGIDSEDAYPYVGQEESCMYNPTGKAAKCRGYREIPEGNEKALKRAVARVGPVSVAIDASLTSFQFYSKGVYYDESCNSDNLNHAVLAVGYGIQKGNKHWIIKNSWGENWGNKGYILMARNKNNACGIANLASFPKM
Sequence of Cathepsin S (P25774 whole entry): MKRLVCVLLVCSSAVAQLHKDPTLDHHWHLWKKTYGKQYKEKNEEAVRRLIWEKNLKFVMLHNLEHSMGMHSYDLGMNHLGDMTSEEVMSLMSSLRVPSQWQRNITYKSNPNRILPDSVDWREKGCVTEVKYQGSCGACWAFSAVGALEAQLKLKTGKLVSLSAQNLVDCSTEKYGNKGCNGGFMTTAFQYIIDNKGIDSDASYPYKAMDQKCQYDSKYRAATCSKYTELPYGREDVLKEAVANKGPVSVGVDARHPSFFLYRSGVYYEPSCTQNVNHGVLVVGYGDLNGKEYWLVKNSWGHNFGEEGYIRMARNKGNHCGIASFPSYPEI

SMILES: CC(C)C[C@H](C(=O)NCC(=O)CNS(=O)(=O)c1ccc(Oc2ccccc2)cc1)c1cccc(-c2ccccc2)c1
- Ki (Cathepsin S): 910 nM
- Ki (Cathepsin K): 1.4 nM
- Ki (Cathepsin B): > 10000 nM
- Ki (Procathepsin L [1]): > 1000 nM

SMILES: C[C@H](CSC(=O)c1ccccc1)C(=O)N1C[C@@H](Sc2ccccc2)C[C@H]1C(=O)O [ZOFENOPRIL]
- IC50 [2]: 0.4 nM

SMILES: CCOC(=O)[C@H](CCc1ccccc1)N[C@@H](C)C(=O)N1[C@H](C(=O)O)C[C@@H]2CCC[C@@H]21
- IC50 [2]: 4 nM

SMILES: CC1=CCN(C(=O)[C@H](Cc2ccc(C(=N)N)cc2)NS(=O)(=O)c2ccc3c(c2)CN(C)CC3)[C@@H](C(=O)O)C1
- bioavailability [3]: 45%
- Ki (Serine protease 1 [4]): 0.46 nM

SMILES: CC(=O)SC[C@@H](Cc1ccc2c(c1)OCO2)C(=O)N[C@@H](C)C(=O)OCc1ccccc1
- ED50 [5]: 0.5 mg/kg

SMILES: O=C(O)C(CCc1ccccc1)N[C@@H](Cc1ccccc1)C(=O)NC[C@H](O)C(=O)O (some centres not stated)
- IC50 [2]: > 10000 nM
- IC50 (Neprilysin): 11 nM

SMILES: CNC(=O)[C@@H](Cc1c(F)c(F)c(F)c(F)c1F)NC(=O)Nc1nnc(S)s1
- Ki [6]: 3000 nM

SMILES: O=CC(Cc1ccccc1)NC(=O)C(Cc1ccccc1)NC(=O)OCc1ccccc1 (stereo not drawn) (Cbz-Phe-Phe-aldehyde; configuration not given here)
- IC50 (Procathepsin L [7]): 0.74 nM

SMILES: CNC(=O)[C@@H]1CCCCN(C(=O)OC(C)(C)C)CCC[C@H](C(=O)NO)[C@@H](CC(C)C)C(=O)N1
- Ki (Stromelysin-1): < 1 nM
- Ki [6]: < 3 nM
- Ki (Interstitial collagenase): < 1 nM

SMILES: NC1CCC(CNC(=O)[C@@H]2CCCN2C(=O)[C@H](N)C(C2CCCCC2)C2CCCCC2)CC1 (some centres not stated)
- bioavailability [3]: 90%

SMILES: CC(/C=C/C=C/c1ccccc1)=C1/SC(=S)N(CC(=O)O)C1=O
- IC50 [8]: 10.8 µg/mL (≈ 31.3 µM)
- IC50 [9]: 21.6 µg/mL (≈ 62.5 µM)
- IC50 (Plasminogen): > 145000 nM
- IC50 (Serine protease 1 [10]): 36500 nM

SMILES: CNC(=O)[C@@H](NC(=O)[C@H](CCCCOc1ccccc1)CP(=O)(O)Cc1ccc(Cc2ccccc2)cc1)C(C)(C)C
- Ki (Stromelysin-1): 30 nM
- Ki (Interstitial collagenase): > 30000 nM

SMILES: CC1(C)CCCC(NC(=O)[C@@H](S)Cc2ccccc2)C(=O)N1CC(=O)O (some centres not stated)
- IC50 [2]: 12 nM
- IC50 (Neprilysin): 63 nM

SMILES: O=C(NO)C1(CS(=O)(=O)c2ccc(Oc3ccc(Cl)cc3)cc2)CCOCC1 [CTS-1027]
- Ki (Matrilysin): 1200 nM
- Ki (Stromelysin-1): 9.3 nM
- Ki (Interstitial collagenase): 590 nM

SMILES: N=C(N)c1cccc(-c2cccc([C@H](CCCNc3ccncc3)C(=O)O)c2)c1
- IC50 (Coagulation factor X): 270 nM

SMILES: COC(=O)[C@H](Cc1cccc(C(=N)N)c1)[C@@H](/C=C/c1ccccc1)NC(=O)c1ccc(-c2ccc(OC)c(OC)c2)cc1
- IC50 (Coagulation factor X): 30 nM

SMILES: CC(C)C[C@H](NC(=O)N1CCNCC1)C(=O)N[C@H](C/C=C/S(=O)(=O)c1ccccc1)CCc1ccccc1
- K second [11]: 5.7 M⁻¹ s⁻¹

SMILES: COCCOCC(CC1(C(=O)N[C@H]2CC[C@@H](C(=O)O)CC2)CCCC1)C(=O)Oc1ccc2c(c1)CCC2 (some centres not stated)
- IC50 (Neprilysin): 28 nM

SMILES: O=C(NC1CCC[C@H]2CCC[C@@H](C(=O)O)N2C1=O)[C@@H](S)Cc1ccccc1 (some centres not stated)
- IC50 [2]: 5 nM
- IC50 (Neprilysin): 8 nM

SMILES: [N-]=[N+]=CC(=O)[C@H](Cc1ccccc1)NC(=O)[C@H](Cc1ccccc1)NC(=O)OCc1ccccc1 (Cbz-Phe-Phe-CHN2)
- IC50 (Procathepsin L [7]): 50 nM

SMILES: CC(=O)N[C@@H](CC(=O)O)C(=O)N[C@H]1CCC[C@H]2SC[C@@H](C(=O)N[C@H]3CC(=O)OC3O)N2C1=O (some centres not stated)
- IC50 (Caspase-1): 10400 nM

SMILES: CC(=O)OCCC/C(=C1/SC(=S)N(CC(=O)O)C1=O)c1ccc(Br)cc1
- IC50 [8]: 15.6 µg/mL (≈ 34 µM)
- IC50 [9]: > 50 µg/mL
- IC50 (Plasminogen): > 109000 nM
- IC50 (Serine protease 1 [10]): 39900 nM

SMILES: CCCCc1nc(Cl)c(CO)n1Cc1ccc(-c2ccccc2-c2nn[nH]n2)cc1 [LOSARTAN]
- IC50 [2]: 19 nM

SMILES: CC[C@H](NC(=O)[C@H](CC(C)C)NC(=O)OCc1ccccc1)C(=O)C(=O)NCCCN1CCOCC1
- Ki [12]: 41000 nM

SMILES: CCCCNC(=O)[C@@H](C[C@H](O)[C@H](CC1CCCCC1)NC(=O)[C@H](Cc1c[nH]cn1)NC(=O)[C@H](Cc1ccccc1)CS(=O)(=O)C(C)(C)C)C(C)C
- bioavailability [13]: < 1%

SMILES: N=C(N)NCCC[C@H](NC(=O)c1ccc2ccccc2c1O)C(=O)N1CCC[C@H]1C(N)=O
- Ki (Tryptase): 840 nM

SMILES: CC(C)C[C@@H](C=O)NC(=O)[C@H](CC(C)C)NC(=O)[C@H](CC(C)C)NC(=O)OCc1ccccc1 [MG-132] (Cbz-Leu-Leu-Leu-aldehyde)
- Ki (Cathepsin K): 1.4 nM

SMILES: CC(C)C[C@H](NC(=O)OCc1ccccc1)C(=O)NC1CCN(S(=O)(=O)c2ccc(Oc3ccccc3)cc2)CC1=O (some centres not stated)
- Ki (Cathepsin B): > 1000 nM
- Ki (Procathepsin L [1]): > 1000 nM

SMILES: CC(C)C[C@H](NC(=O)[C@H]1O[C@@H]1C(=O)O)C(=O)N1CCC[C@H]1C(=O)OCc1ccccc1
- K second [11]: 8.7 M⁻¹ s⁻¹

SMILES: CCC(=O)O[C@@H](O[P@](=O)(CCCCc1ccccc1)CC(=O)N1C[C@H](C2CCCCC2)C[C@H]1C(=O)O)C(C)C [FOSINOPRIL]
- IC50 [2]: 1 nM

SMILES: CCOC(=O)[C@H](CCc1ccccc1)N[C@H]1CCc2ccccc2N(CC(=O)O)C1=O [BENAZEPRIL]
- IC50 [2]: 1.7 nM

SMILES: NCc1ccc(CNC(=O)CNC(=O)OCc2ccc(COC(=O)NCC(=O)NCc3ccc(CN)cc3)cc2)cc1
- Ki (Tryptase): 0.6 nM
- Ki (Serine protease 1 [4]): 84000 nM

Reference: ChEMBL document CHEMBL1133572, “Protease inhibitors: current status and future prospects” (J Med Chem, 2000)
